Publication PMC6389993, “Quercetin and its metabolite isorhamnetin promote glucose uptake through different signalling pathways in myotubes” (Scientific Reports, 2019)

Columns and labels:
GLUT4 = GLUT4 translocation in L6 myotubes after siRNA knockdown of AMPKα, JAK2 or JAK3; format: cell-based, rat; conditions: 1 nM quercetin or isorhamnetin
Experimental: (§1) For in vitro cell culture experiments, after serum starvation for 18 h, myotubes were treated with various concentrations of quercetin or isorhamnetin (0.1–10 nM) for 15 min; DMSO (final 0.1%) was used as a vehicle control. As positive controls, 100 nM insulin, 1 mM AICAR, 10 nM leptin, or 100 ng/mL IL-15 were used for insulin, AMPK, JAK2/STAT, or JAK3/STAT signalling pathways, respectively. Cells were treated with insulin or AICAR for 15 min, leptin for 60 min, or IL-15 for 24 h. Whole protein and plasma membrane fractions were prepared from myotubes, as previously described. For in vivo experiment, plasma membrane fraction and tissue lysate of soleus muscle were prepared.
(§2) Translocation of GLUT4 to the plasma membrane, as well as expression and phosphorylation levels of GLUT4-related regulators were estimated by western blot analysis. Briefly, equal amounts of proteins were separated by sodium dodecyl sulfate-polyacrylamide gel electrophoresis (SDS-PAGE). Separated proteins were transferred onto a polyvinylidene fluoride membrane and nonspecific binding sites were blocked using either Blocking One (to detect unphosphorylated proteins) or Blocking One-P (to detect phosphoproteins). The membrane was incubated overnight with an appropriate primary antibody for GLUT4 (1:5000), IR (1:10000), p-IRS1 (1:5000), IRS1 (1:5000), p-PI3K (1:5000), PI3K (1:10000), p-Akt (1:5000), Akt (1:10000), p-AMPKα (1:5000), AMPKα (1:10000), p-ACC (1:5000), ACC (1:10000), p-LKB1 (1:5000), LKB1 (1:10000), p-JAK2 (1:5000), JAK2 (1:5000), p-JAK3 (1:5000), JAK3 (1:10000), p-STAT1 (1:5000), STAT1 (1:10000), p-STAT3 (1:5000), STAT3 (1:10000), p-STAT5 (1:5000), STAT5 (1:10000), or β-actin (1:20000), and subsequently treated with the corresponding horseradish peroxidase-conjugated secondary antibody (1:50000) for 1 h. Specific immune complexes were developed using ImmunoStar® LD and detected with an ATTO Light-Capture II Western Blotting Detection System. Individual band density was calculated by ImageJ and normalized to the control.
Mature myotubes were cultured in antibiotic-free medium and transfected with siRNA at a final concentration of 50 nM using Lipofectamine RNAiMAX transfection reagent according to the manufacturer’s instructions. In brief, mature myotubes were transfected with siRNA in Opti-MEM for 48 h. Subsequently, the medium was changed to fresh Opti-MEM and cells were treated with the indicated concentrations of quercetin or isorhamnetin.

AMPK = assay: Phosphorylation of AMPK in L6 myotubes (western blot); format: cell-based, rat
Experimental: In vitro cultured cell experiments were conducted according to a previously described protocol[6],[14]. Briefly, L6 myoblasts derived from rat skeletal muscle and of less than 40 passages were maintained in MEM supplemented with 10% foetal bovine serum (FBS) and antibiotics (100 U/ml penicillin and 100 μg/ml streptomycin) at 37 °C under a humidified atmosphere condition of 5% CO2 and 95% air. In each experiment, cells (2.2 × 10^4 cells/ml) were seeded into 96-well plates or 60-mm dishes for induction of differentiation into mature myotubes. After reaching confluence, cells were supplemented with differentiation medium containing 2% FBS and the same antibiotics for 7 days. Cells were used for each experiment after morphological analysis of differentiation status using phase-contrast microscopy. To explore the contribution of CaMKKβ or intracellular-free calcium ions in quercetin- and isorhamnetin-stimulated GLUT4 translocation, L6 cells were incubated in the presence or absence of 10 μM STO-609 and 25 μM […], respectively, for 30 min prior to treatment with either quercetin or isorhamnetin.
as §1, §2
42 after morphological analysis of differentiation status using phase-contrast microscopy.
43 Preparation of whole protein and plasma membrane fractions After serum starvation
44 for 18 h, myotubes were treated with various concentrations of quercetin or isorhamnetin (1–
45 10 μM) for 15 min; DMSO (final 0.1%) was used as a vehicle control. As positive controls, […]

“leptin: positive control for JAK2/STAT signalling pathway” was tested, and the “compound-induced GLUT4 translocation after siRNA for JAK2” value (GLUT4; siJAK2 50 nM 48 h, 10 nM leptin) was “abolished”.
For O=C(O)c1ccc2c3c1cccc3c(=O)n1c3ccccc3nc21 [STO-609, reference compound], the “effect on quercetin-induced AMPK phosphorylation” value (AMPK; 10 μM STO-609 for 30 min prior to 1 nM quercetin) was “abolished”.
With CC(=O)OCOC(=O)CN(CC(=O)OCOC(C)=O)c1ccccc1OCCOc1ccccc1N(CC(=O)OCOC(C)=O)CC(=O)OCOC(C)=O [BAPTA-AM, 1,2-Bis (2-aminophenoxy) ethane-N,N,N′,N′-tetraacetic acid tetrakis (acetoxymethyl ester), reference compound] the “effect on quercetin-induced AMPK phosphorylation” value (AMPK; 25 μM BAPTA-AM for 30 min prior to 1 nM quercetin) was “did not affect”.
With NC(=O)c1ncn([C@@H]2O[C@H](CO)[C@@H](O)[C@H]2O)c1N [AICAR, 5-aminoimidazole-4-carboxyamide ribonucleoside, reference compound] the “compound-induced GLUT4 translocation after siRNA for AMPK” value (GLUT4; siAMPKα 50 nM 48 h, 1 mM AICAR) was “almost completely abolished”.
